The structures appear in SMILES notation. Calls of active or inactive are those of the source. How the calls were made is not given here.

This is an account of results in PubChem BioAssay AID1259407 (Chemical Carcinogenesis Research Information System (CCRIS), 2018).

The subject of this data set is CCRIS mutagenicity, Ames/micronucleus/aberration tests. Kind of data set: CCRIS mutagenicity studies.
[1] abbreviates: Test System: AMES SALMONELLA TYPHIMURIUM, Strain/Indicator: TA100, Metabolic Activation: NONE, Method: PREINCUBATION

Consider `CN(CCCC(=O)c1cccnc1)N=O`, for which the mutagenic call was “inactive; negative” under setting [1]; “active; positive” (Test System: AMES SALMONELLA TYPHIMURIUM, Strain/Indicator: TA100, Metabolic Activation: RABBIT, LIVER, S-9, Method: PREINCUBATION); “inactive; negative” (Test System: AMES SALMONELLA TYPHIMURIUM, Strain/Indicator: TA100, Metabolic Activation: RABBIT, LUNG, CLARA CELLS, Method: PREINCUBATION); “inactive; negative” (Test System: AMES SALMONELLA TYPHIMURIUM, Strain/Indicator: TA100, Metabolic Activation: RABBIT, LUNG, MACROPHAGES, Method: PREINCUBATION); “inactive; negative” (Test System: AMES SALMONELLA TYPHIMURIUM, Strain/Indicator: TA100, Metabolic Activation: RABBIT, LUNG, TYPE II CELLS, Method: PREINCUBATION); “inactive; negative” (Test System: AMES SALMONELLA TYPHIMURIUM, Strain/Indicator: TA100, Metabolic Activation: RAT LIVER S-9, AROCLOR 1254, Method: PREINCUBATION). The mutagenic call is, setting by setting: (Test System: AMES SALMONELLA TYPHIMURIUM, Strain/Indicator: TA100, Metabolic Activation: RAT, LIVER, S-9, AROCLOR 1254, Method: STANDARD PLATE) “active; positive”; (Test System: AMES SALMONELLA TYPHIMURIUM, Strain/Indicator: TA1530, Metabolic Activation: RABBIT, LIVER, S-9, Method: PREINCUBATION) “active; positive”; (Test System: AMES SALMONELLA TYPHIMURIUM, Strain/Indicator: TA1530, Metabolic Activation: RABBIT, LUNG, CLARA CELLS, Method: PREINCUBATION) “inactive; negative”; (Test System: AMES SALMONELLA TYPHIMURIUM, Strain/Indicator: TA1530, Metabolic Activation: RABBIT, LUNG, MACROPHAGES, Method: PREINCUBATION) “inactive; negative”; (Test System: AMES SALMONELLA TYPHIMURIUM, Strain/Indicator: TA1530, Metabolic Activation: RABBIT, LUNG, TYPE II CELLS, Method: PREINCUBATION) “inactive; negative”; (Test System: AMES SALMONELLA TYPHIMURIUM, Strain/Indicator: TA1535, Metabolic Activation: HAMSTER, LIVER, MICROSOMES, 3-METHYLCHOLANTHRENE, Method: PREINCUBATION) “active; positive”. The mutagenic call by setting is: (Test System: AMES SALMONELLA TYPHIMURIUM, Strain/Indicator: TA1535, Metabolic Activation: HAMSTER, LIVER, MICROSOMES, AROCLOR 1254, Method: PREINCUBATION) “active; positive”; (Test System: AMES SALMONELLA TYPHIMURIUM, Strain/Indicator: TA1535, Metabolic Activation: HAMSTER, LIVER, MICROSOMES, DEXAMETHASONE, Method: PREINCUBATION) “active; positive”; (Test System: AMES SALMONELLA TYPHIMURIUM, Strain/Indicator: TA1535, Metabolic Activation: HAMSTER, LIVER, MICROSOMES, ETHANOL, Method: PREINCUBATION) “active; positive”; (Test System: AMES SALMONELLA TYPHIMURIUM, Strain/Indicator: TA1535, Metabolic Activation: HAMSTER, LIVER, MICROSOMES, ISOSAFROL, Method: PREINCUBATION) “active; positive”; (Test System: AMES SALMONELLA TYPHIMURIUM, Strain/Indicator: TA1535, Metabolic Activation: HAMSTER, LIVER, MICROSOMES, PHENOBARBITAL, Method: PREINCUBATION) “active; positive”; (Test System: AMES SALMONELLA TYPHIMURIUM, Strain/Indicator: TA1535, Metabolic Activation: HAMSTER, LIVER, S-9, 3-METHYLCHOLANTHRENE, Method: PREINCUBATION) “active; positive”. For the same compound, the mutagenic call is “active; positive” (Test System: AMES SALMONELLA TYPHIMURIUM, Strain/Indicator: TA1535, Metabolic Activation: HAMSTER, LIVER, S-9, AROCLOR 1254, Method: PREINCUBATION); “active; positive” (Test System: AMES SALMONELLA TYPHIMURIUM, Strain/Indicator: TA1535, Metabolic Activation: HAMSTER, LIVER, S-9, DEXAMETHASONE, Method: PREINCUBATION); “active; positive” (Test System: AMES SALMONELLA TYPHIMURIUM, Strain/Indicator: TA1535, Metabolic Activation: HAMSTER, LIVER, S-9, ETHANOL, Method: PREINCUBATION); “active; positive” (Test System: AMES SALMONELLA TYPHIMURIUM, Strain/Indicator: TA1535, Metabolic Activation: HAMSTER, LIVER, S-9, ISOSAFROL, Method: PREINCUBATION); “active; positive” (Test System: AMES SALMONELLA TYPHIMURIUM, Strain/Indicator: TA1535, Metabolic Activation: HAMSTER, LIVER, S-9, PHENOBARBITAL, Method: PREINCUBATION); “inactive; negative” (Test System: AMES SALMONELLA TYPHIMURIUM, Strain/Indicator: TA1535, Metabolic Activation: NONE, Method: STANDARD PLATE). Moreover, the mutagenic call by setting is: (Test System: AMES SALMONELLA TYPHIMURIUM, Strain/Indicator: TA1535, Metabolic Activation: RAT, LIVER, HEPATOCYTES, AROCLOR 1254, Method: STANDARD PLATE) “active; positive”; (Test System: AMES SALMONELLA TYPHIMURIUM, Strain/Indicator: TA1535, Metabolic Activation: RAT, LIVER, HEPATOCYTES, Method: STANDARD PLATE) “active; positive”; (Test System: AMES SALMONELLA TYPHIMURIUM, Strain/Indicator: TA1535, Metabolic Activation: RAT, LIVER, S-9, AROCLOR 1254, Method: STANDARD PLATE) “active; positive”; (Test System: AMES SALMONELLA TYPHIMURIUM, Strain/Indicator: TA1535, Metabolic Activation: RAT, LIVER, S-9, Method: STANDARD PLATE) “inactive; negative”; (Test System: AMES SALMONELLA TYPHIMURIUM, Strain/Indicator: TA1535, Metabolic Activation: RAT, TRACHEAL EPITHELIAL CELLS, AROCLOR 1254, Method: STANDARD PLATE) “inactive; negative”; (Test System: AMES SALMONELLA TYPHIMURIUM, Strain/Indicator: TA1535, Metabolic Activation: RAT, TRACHEAL EPITHELIAL CELLS, Method: STANDARD PLATE) “inactive; negative”. Further, the mutagenic call reads like this: (Test System: AMES SALMONELLA TYPHIMURIUM, Strain/Indicator: TA7004, Metabolic Activation: HAMSTER LIVER S-9, AROCLOR 1254, Method: PREINCUBATION) “active; positive”; (Test System: AMES SALMONELLA TYPHIMURIUM, Strain/Indicator: TA7004, Metabolic Activation: NONE, Method: PREINCUBATION) “inactive; negative”; (Test System: AMES SALMONELLA TYPHIMURIUM, Strain/Indicator: TA7004, Metabolic Activation: RAT LIVER S-9, AROCLOR 1254, Method: PREINCUBATION) “active; positive”; (Test System: AMES SALMONELLA TYPHIMURIUM, Strain/Indicator: YG7108-2A6-OR, Metabolic Activation: NONE, Method: PREINCUBATION) “active; positive”; (Test System: AMES SALMONELLA TYPHIMURIUM, Strain/Indicator: YG7108-2A6, Metabolic Activation: NONE, Method: PREINCUBATION) “active; positive”; (Test System: AMES SALMONELLA TYPHIMURIUM, Strain/Indicator: YG7108-PCW, Metabolic Activation: NONE, Method: PREINCUBATION) “inactive; negative”. Further, the mutagenic call reads like this: (Test System: AMES SALMONELLA TYPHIMURIUM, Strain/Indicator: YG7108, Metabolic Activation: RAT LIVER S-9, PHENOBARBITAL AND 5,6-BENZOFLAVONE, Method: PREINCUBATION) “active; positive”; (Test System: CHINESE HAMSTER V-79, Strain/Indicator: V-79 (HPRT)/6-THIOGUANINE, Metabolic Activation: RAT, HEPATOCYTES) “active; positive”; (Test System: CHINESE HAMSTER V-79, Strain/Indicator: V-79 (HPRT)/6-THIOGUANINE, Metabolic Activation: RAT, HEPATOMA, H4IIE CELLS) “inactive; negative”; (Test System: CHINESE HAMSTER V-79, Strain/Indicator: V-79 (HPRT)/6-THIOGUANINE, Metabolic Activation: RAT, LIVER, S-9, AROCLOR 1254) “active; positive”; (Test System: E. COLI, Strain/Indicator: NR3835, Metabolic Activation: HOST-MEDIATED, Method: IN VIVO-IN VITRO) “active; positive”; (Test System: UDS RABBIT LUNG CLARA CELLS, Strain/Indicator: THY INCORP, Metabolic Activation: NONE, Method: LIQUID SCINTILLATION COUNTING) “active; positive”. Also, the mutagenic call (Test System: UDS RABBIT LUNG MACROPHAGES, Strain/Indicator: THY INCORP, Metabolic Activation: NONE, Method: LIQUID SCINTILLATION COUNTING) was “inactive; negative”; the mutagenic call (Test System: UDS RABBIT LUNG TYPE II CELLS, Strain/Indicator: THY INCORP, Metabolic Activation: NONE, Method: LIQUID SCINTILLATION COUNTING) was “active; positive”; the mutagenic call (Test System: UDS RODENT HEPATOCYTES, Strain/Indicator: THY INCORP (NON-S-PHASE), Method: AUTORADIOGRAPHY) was “active; positive”.
As to `CC(=O)O[C@H]1[C@H](OC23C=C(C)C4(CC4)C(C)(O)C2C(=O)C(C)(C)C3)O[C@H](CO)[C@@H](OC(=O)/C=C/c2ccc(O)cc2)[C@@H]1O` (some centres not stated), the mutagenic call reads like this: (Test System: AMES SALMONELLA TYPHIMURIUM, Strain/Indicator: TA98, Metabolic Activation: NONE, Method: PREINCUBATION) “active; positive”; under setting [1], “active; positive”.
